Assay results taken from US8563729B2, “Thienopyridone derivatives as AMP-activated protein kinase (AMPK) activators” (Merck Patent GmbH, priority 2008, dated 2013).

Columns and labels:
[1] = ob/ob and db/db mice, 8 day AICAR administration; cited from earlier work
[2] = target: T1, AMPK protein (recombinant α1β1γ2) (Homo sapiens, UniProt Q13131+Q9Y478); test: AMPK enzymatic activity (Delfia, AMARA peptide substrate); type: biochemical; settings: compound 30 μM vs AMP 30 μM; 125 μM ATP; ratio 90% or higher = direct activator
T1 construct: made in house; host or cells: E. coli
Procedure, shortened: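 Human α1β1γ2 AMPK expressed in E. coli, reactivated in vitro by LKB1, assayed in 50 mM Hepes pH 7.4 with 125 μM ATP and AMARA peptide for 30 min at room temperature; phosphorylation detected by Delfia anti-phosphoserine antibody. Activity = % of basal control at 30 μM compound relative to that of 30 μM AMP.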

[3] = test system: H-2 Kb cells; test: Glucose uptake in H-2 Kb cells (in vitro cellular test); type: cell-based, mouse; settings: H-2 Kb cells differentiated in muscle, 4 hours incubation, 2-deoxy-D-[1,2 3H] glucose uptake 10 min
Procedure, shortened: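 H-2 Kb tsA58 mouse cells were differentiated to muscle at 37° C without interferon-γ for 3 days, then exposed to compound for 4 h in 1 g/l glucose DMEM. Uptake of 3H-2-deoxyglucose over 10 min was measured by scintillation. Activity was taken as the compound concentration matching or exceeding uptake with insulin (170 nM), scored ≦10 or >10 micro Molar.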

T1 sequence (Q13131 whole entry): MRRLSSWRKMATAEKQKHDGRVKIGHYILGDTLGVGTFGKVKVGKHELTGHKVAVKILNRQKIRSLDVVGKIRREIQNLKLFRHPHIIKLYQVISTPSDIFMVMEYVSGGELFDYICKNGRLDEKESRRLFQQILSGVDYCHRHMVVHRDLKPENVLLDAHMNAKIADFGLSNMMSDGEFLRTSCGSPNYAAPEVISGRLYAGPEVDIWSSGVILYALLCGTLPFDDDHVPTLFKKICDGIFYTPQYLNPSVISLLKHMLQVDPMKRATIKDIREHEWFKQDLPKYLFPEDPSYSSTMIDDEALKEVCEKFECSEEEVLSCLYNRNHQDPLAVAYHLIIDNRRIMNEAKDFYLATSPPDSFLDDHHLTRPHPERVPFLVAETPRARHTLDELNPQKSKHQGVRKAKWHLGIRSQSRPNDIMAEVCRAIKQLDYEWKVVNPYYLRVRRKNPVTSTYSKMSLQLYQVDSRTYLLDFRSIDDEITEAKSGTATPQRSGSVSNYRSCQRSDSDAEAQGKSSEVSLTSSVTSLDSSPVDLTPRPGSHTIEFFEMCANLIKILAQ
T1 sequence (Q9Y478 whole entry): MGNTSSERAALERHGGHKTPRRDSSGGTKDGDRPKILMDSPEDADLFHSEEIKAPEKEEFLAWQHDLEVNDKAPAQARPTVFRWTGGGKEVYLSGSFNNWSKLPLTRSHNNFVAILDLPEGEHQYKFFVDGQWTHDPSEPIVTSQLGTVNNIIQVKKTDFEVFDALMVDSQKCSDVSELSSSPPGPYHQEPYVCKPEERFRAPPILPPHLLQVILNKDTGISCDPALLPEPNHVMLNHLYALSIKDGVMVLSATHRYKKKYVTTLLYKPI
T1 sequence (Q9UGJ0 whole entry partner): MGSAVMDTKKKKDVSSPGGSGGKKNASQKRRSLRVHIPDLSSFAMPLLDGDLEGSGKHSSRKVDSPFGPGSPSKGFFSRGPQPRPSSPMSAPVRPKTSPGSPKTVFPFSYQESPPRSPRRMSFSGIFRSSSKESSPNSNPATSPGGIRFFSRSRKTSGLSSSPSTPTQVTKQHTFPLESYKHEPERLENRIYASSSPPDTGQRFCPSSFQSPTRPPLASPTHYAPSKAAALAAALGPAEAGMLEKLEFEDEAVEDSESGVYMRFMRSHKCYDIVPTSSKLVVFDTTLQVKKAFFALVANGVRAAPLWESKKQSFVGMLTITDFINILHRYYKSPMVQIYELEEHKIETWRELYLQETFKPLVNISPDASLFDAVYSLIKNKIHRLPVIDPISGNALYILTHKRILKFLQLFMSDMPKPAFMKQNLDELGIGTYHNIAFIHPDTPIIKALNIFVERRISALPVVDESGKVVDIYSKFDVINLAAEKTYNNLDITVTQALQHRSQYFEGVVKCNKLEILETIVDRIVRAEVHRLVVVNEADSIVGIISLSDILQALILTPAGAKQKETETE

Row | SMILES | activity: Ratio between the % of control (basal activity) of compound of formula (I) at 30 μM and the % of control (basal activity) of AMP at 30 μM [2] | reduction of blood glucose [1] | Activity (table III): Concentration of compound (I) for a glucose uptake equal or higher to glucose uptake induced by insulin (170 nM) [3]
1 | NC(=O)c1ncn([C@@H]2O[C@H](CO)[C@@H](O)[C@H]2O)c1N [AICAR] |  | 35% | 
2 | Cc1ccc(-c2c(Cl)sc3[nH]c(=O)c(-c4ccccc4)c(O)c23)cc1C [Compound 196] | 165% |  | ++ (^++ or **concentration of compound (I) ≦10 micro Molar)
3 | Cc1ccc(-c2csc3[nH]c(=O)c(-c4ccccc4)c(O)c23)c(O)c1F [Compound 198] | 363% |  | + (^+ or *concentration of compound (I) >10 micro Molar)
4 | COc1c(-c2c(Cl)sc3[nH]c(=O)c(-c4ccccc4)c(O)c23)ccc(C)c1C [Compound 201] | 122% |  | + (^+ or *concentration of compound (I) >10 micro Molar)
5 | Cc1ccc(-c2c(Cl)sc3[nH]c(=O)c(-c4ccccc4)c(O)c23)c(O)c1C [Compound 202] | 305% |  | ++ (^++ or **concentration of compound (I) ≦10 micro Molar)
6 | Cc1cc(O)c(-c2c(Cl)sc3[nH]c(=O)c(-c4ccccc4)c(O)c23)cc1C [Compound 207] | 213% |  | + (^+ or *concentration of compound (I) >10 micro Molar)

Continued, in another order:

Row | activity: Ratio between the % of control (basal activity) of compound of formula (I) at 30 μM and the % of control (basal activity) of AMP at 30 μM [2] | SMILES | reduction of blood glucose [1] | Activity (table III): Concentration of compound (I) for a glucose uptake equal or higher to glucose uptake induced by insulin (170 nM) [3]
7 | 189% | Cc1ccc(-c2csc3[nH]c(=O)c(-c4ccc(F)cc4)c(O)c23)c(O)c1F [Compound 204] |  | + (^+ or *concentration of compound (I) >10 micro Molar)
8 | 184% | Cc1ccc(-c2c(Cl)sc3[nH]c(=O)c(-c4ccc(F)cc4)c(O)c23)c(O)c1F [Compound 206] |  | + (^+ or *concentration of compound (I) >10 micro Molar)
9 | 131% | O=c1[nH]c2sc(Cl)c(-c3ccc(F)c(F)c3O)c2c(O)c1-c1ccccc1 [Compound 208] |  | + (^+ or *concentration of compound (I) >10 micro Molar)
10 | 297% | CCc1ccc(-c2c(Cl)sc3[nH]c(=O)c(-c4ccccc4)c(O)c23)c(O)c1 [Compound 209] |  | ++ (^++ or **concentration of compound (I) ≦10 micro Molar)
11 | 181% | Cc1ccc(-c2c(Cl)sc3[nH]c(=O)c(-c4ccccc4)c(O)c23)c(O)c1F [Compound 210] |  | ++ (^++ or **concentration of compound (I) ≦10 micro Molar)
12 | 149% | Cc1ccc(-c2c(F)sc3[nH]c(=O)c(-c4ccc(F)cc4)c(O)c23)c(O)c1F [Compound 211] |  | + (^+ or *concentration of compound (I) >10 micro Molar)
13 | 183% | COc1ccc(-c2c(O)c3c(-c4ccc(F)cc4O)c(Cl)sc3[nH]c2=O)cc1 [Compound 212] |  | + (^+ or *concentration of compound (I) >10 micro Molar)
14 | 349% | O=c1[nH]c2sc(Cl)c(-c3ccc(F)cc3O)c2c(O)c1-c1ccc(F)cc1 [Compound 213] |  | + (^+ or *concentration of compound (I) >10 micro Molar)
